Data: the supplement of paper PMC10307832

What was measured:
Test in all cases: relative viability (nuclei count vs DMSO), 5 days (fraction); higher = more cells survive
EMC-BAC-2 = tested on: EMC-BAC-2
Method in brief: (§1)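 A single step with final 0.05% Triton X-100, 1% formaldehyde and 1 ug/ml Hoechst fixed the cells and stained nuclei 5 days after treatment. Lung cancer cell lines in 1536-well plates had been treated by pin tool the day after seeding with one drug alone or a fixed anchor-drug dose plus five library-drug doses (not always all listed) in √10 steps, and nuclei were counted on 4× images. Relative viability is the ratio of nuclei in treated wells to nuclei in vehicle wells, taken as the median of duplicate plates.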

EPLC-272H = tested on: EPLC-272H
Method in brief: as §1

H3255 = tested on: H3255
Method in brief: as §1

HOP-62 = tested on: HOP-62
Method in brief: as §1

LCLC-97TM1 = tested on: LCLC-97TM1
Method in brief: as §1

LXF-289 = tested on: LXF-289
Method in brief: as §1

NCI-H1563 = tested on: NCI-H1563
Method in brief: as §1

NCI-H1734 = tested on: NCI-H1734
Method in brief: as §1

NCI-H1915 = tested on: NCI-H1915
Method in brief: as §1

NCI-H1993 = tested on: NCI-H1993
Method in brief: as §1

NCI-H2009 = tested on: NCI-H2009
Method in brief: as §1

NCI-H2023 = tested on: NCI-H2023
Method in brief: as §1

NCI-H2085 = tested on: NCI-H2085
Method in brief: as §1

NCI-H2126 = tested on: NCI-H2126
Method in brief: as §1

NCI-H2347 = tested on: NCI-H2347
Method in brief: as §1

NCI-H322M = tested on: NCI-H322M
Method in brief: as §1

NCI-H647 = tested on: NCI-H647
Method in brief: as §1

NCI-H661 = tested on: NCI-H661
Method in brief: as §1

NCI-H727 = tested on: NCI-H727
Method in brief: as §1

PC-14 = tested on: PC-14
Method in brief: as §1

SK-LU-1 = tested on: SK-LU-1
Method in brief: as §1

SW 1573 = tested on: SW 1573
Method in brief: as §1

In the case of `O=c1cc(-c2cccc3c2Sc2ccccc2S3)oc(N2CCOCC2)c1` + COc1cccc2cc(-c3nc([C@H]4CC[C@H](C(=O)O)CC4)n4ncnc(N)c34)[nH]c12 [OSI-027] (partner 0.5 µM), the relative viability (EMC-BAC-2; first compound 0.08 µM) was 0.341, the relative viability (EMC-BAC-2; first compound 0.253 µM) was 0.416 and the relative viability (EMC-BAC-2; first compound 0.8 µM) was 0.354. For the same compound, the relative viability (EMC-BAC-2; first compound 2.53 µM) was 0.392, the relative viability (EMC-BAC-2; first compound 8 µM) was 0.406 and the relative viability (EPLC-272H; first compound 0.08 µM) was 0.254. It also gave a relative viability (EPLC-272H; first compound 0.253 µM) of 0.279, a relative viability (EPLC-272H; first compound 0.8 µM) of 0.254 and a relative viability (EPLC-272H; first compound 2.53 µM) of 0.251. The relative viability (EPLC-272H; first compound 8 µM) was 0.278, the relative viability (H3255; first compound 0.08 µM) was 0.61 and the relative viability (H3255; first compound 0.253 µM) was 0.604. The relative viability (H3255; first compound 0.8 µM) was 0.541, the relative viability (H3255; first compound 2.53 µM) was 0.569 and the relative viability (H3255; first compound 8 µM) was 0.671. It also gave a relative viability (HOP-62; first compound 0.08 µM) of 0.888, a relative viability (HOP-62; first compound 0.253 µM) of 1.17 and a relative viability (HOP-62; first compound 0.8 µM) of 0.913. It also gave a relative viability (HOP-62; first compound 2.53 µM) of 0.745, a relative viability (HOP-62; first compound 8 µM) of 1.07 and a relative viability (LCLC-97TM1; first compound 0.08 µM) of 0.48. For the same compound, the relative viability (LCLC-97TM1; first compound 0.253 µM) was 0.407, the relative viability (LCLC-97TM1; first compound 0.8 µM) was 0.539 and the relative viability (LCLC-97TM1; first compound 2.53 µM) was 0.519. It also gave a relative viability (LCLC-97TM1; first compound 8 µM) of 0.575, a relative viability (LXF-289; first compound 0.08 µM) of 0.812 and a relative viability (LXF-289; first compound 0.253 µM) of 0.811. The relative viability (LXF-289; first compound 0.8 µM) was 0.871, the relative viability (LXF-289; first compound 2.53 µM) was 0.697 and the relative viability (LXF-289; first compound 8 µM) was 0.87. The relative viability (NCI-H1563; first compound 0.08 µM) was 0.728, the relative viability (NCI-H1563; first compound 0.253 µM) was 0.756 and the relative viability (NCI-H1563; first compound 0.8 µM) was 0.77. For the same compound, the relative viability (NCI-H1563; first compound 2.53 µM) was 0.717, the relative viability (NCI-H1563; first compound 8 µM) was 0.676 and the relative viability (NCI-H1734; first compound 0.08 µM) was 0.556. The relative viability (NCI-H1734; first compound 0.253 µM) was 0.613, the relative viability (NCI-H1734; first compound 0.8 µM) was 0.611 and the relative viability (NCI-H1734; first compound 8 µM) was 0.61. It also gave a relative viability (NCI-H1915; first compound 0.08 µM) of 0.608, a relative viability (NCI-H1915; first compound 0.253 µM) of 0.677 and a relative viability (NCI-H1915; first compound 0.8 µM) of 0.699. The relative viability (NCI-H1915; first compound 2.53 µM) was 0.575, the relative viability (NCI-H1915; first compound 8 µM) was 0.678 and the relative viability (NCI-H1993; first compound 0.08 µM) was 0.539. It also gave a relative viability (NCI-H1993; first compound 0.253 µM) of 0.543, a relative viability (NCI-H1993; first compound 0.8 µM) of 0.548 and a relative viability (NCI-H1993; first compound 2.53 µM) of 0.562. It also gave a relative viability (NCI-H1993; first compound 8 µM) of 0.637, a relative viability (NCI-H2009; first compound 0.08 µM) of 0.627 and a relative viability (NCI-H2009; first compound 0.253 µM) of 0.663. The relative viability (NCI-H2009; first compound 0.8 µM) was 0.734, the relative viability (NCI-H2009; first compound 2.53 µM) was 0.575 and the relative viability (NCI-H2009; first compound 8 µM) was 0.553. It also gave a relative viability (NCI-H2023; first compound 0.08 µM) of 0.353, a relative viability (NCI-H2023; first compound 0.253 µM) of 0.379 and a relative viability (NCI-H2023; first compound 0.8 µM) of 0.396. For the same compound, the relative viability (NCI-H2023; first compound 2.53 µM) was 0.315, the relative viability (NCI-H2023; first compound 8 µM) was 0.256 and the relative viability (NCI-H2085; first compound 0.08 µM) was 0.635. It also gave a relative viability (NCI-H2085; first compound 0.253 µM) of 0.88, a relative viability (NCI-H2085; first compound 0.8 µM) of 0.695 and a relative viability (NCI-H2085; first compound 2.53 µM) of 0.512. For the same compound, the relative viability (NCI-H2085; first compound 8 µM) was 0.525, the relative viability (NCI-H2126; first compound 0.08 µM) was 0.672 and the relative viability (NCI-H2126; first compound 0.253 µM) was 0.813. For the same compound, the relative viability (NCI-H2126; first compound 0.8 µM) was 0.581, the relative viability (NCI-H2126; first compound 2.53 µM) was 0.535 and the relative viability (NCI-H2126; first compound 8 µM) was 0.828. The relative viability (NCI-H2347; first compound 0.08 µM) was 0.421, the relative viability (NCI-H2347; first compound 0.253 µM) was 0.454 and the relative viability (NCI-H2347; first compound 0.8 µM) was 0.297. The relative viability (NCI-H2347; first compound 2.53 µM) was 0.431, the relative viability (NCI-H2347; first compound 8 µM) was 0.297 and the relative viability (NCI-H322M; first compound 0.08 µM) was 0.524. It also gave a relative viability (NCI-H322M; first compound 0.253 µM) of 0.588, a relative viability (NCI-H322M; first compound 0.8 µM) of 0.618 and a relative viability (NCI-H322M; first compound 2.53 µM) of 0.44. For the same compound, the relative viability (NCI-H322M; first compound 8 µM) was 0.543, the relative viability (NCI-H647; first compound 0.08 µM) was 0.636 and the relative viability (NCI-H647; first compound 0.253 µM) was 0.813. For the same compound, the relative viability (NCI-H647; first compound 0.8 µM) was 0.588, the relative viability (NCI-H647; first compound 2.53 µM) was 0.513 and the relative viability (NCI-H647; first compound 8 µM) was 0.623. It also gave a relative viability (NCI-H661; first compound 0.08 µM) of 0.736, a relative viability (NCI-H661; first compound 0.253 µM) of 0.739 and a relative viability (NCI-H661; first compound 0.8 µM) of 0.71. It also gave a relative viability (NCI-H661; first compound 2.53 µM) of 0.642, a relative viability (NCI-H661; first compound 8 µM) of 0.647 and a relative viability (NCI-H727; first compound 0.08 µM) of 0.631. The relative viability (NCI-H727; first compound 0.253 µM) was 0.673, the relative viability (NCI-H727; first compound 0.8 µM) was 0.586 and the relative viability (NCI-H727; first compound 2.53 µM) was 0.563. The relative viability (NCI-H727; first compound 8 µM) was 0.64, the relative viability (PC-14; first compound 0.08 µM) was 0.884 and the relative viability (PC-14; first compound 0.253 µM) was 1.07. For the same compound, the relative viability (PC-14; first compound 0.8 µM) was 0.714, the relative viability (PC-14; first compound 2.53 µM) was 0.772 and the relative viability (PC-14; first compound 8 µM) was 1.02. For the same compound, the relative viability (SK-LU-1; first compound 0.08 µM) was 0.322, the relative viability (SK-LU-1; first compound 0.253 µM) was 0.375 and the relative viability (SK-LU-1; first compound 0.8 µM) was 0.335. It also gave a relative viability (SK-LU-1; first compound 2.53 µM) of 0.364, a relative viability (SK-LU-1; first compound 8 µM) of 0.301 and a relative viability (SW 1573; first compound 0.08 µM) of 0.514. It also gave a relative viability (SW 1573; first compound 0.253 µM) of 0.797, a relative viability (SW 1573; first compound 0.8 µM) of 0.703 and a relative viability (SW 1573; first compound 2.53 µM) of 0.613. The relative viability (SW 1573; first compound 8 µM) was 0.728.
